What was measured:
human Factor XI mRNA [1] = experiment: Antisense inhibition in HepG2 cells by microwalk gapmers, 75 nM, lipofectin (Example 3); assay type: cell-based; details: HepG2 cells, 75 nM, oligonucleotides targeted to nucleobases 1275 to 1318 of SEQ ID NO: 1
Method in brief: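 HepG2 cells (10,000 per well) were transfected with 75 nM gapmer using lipofectin and treated for about 24 h. Factor XI mRNA was quantified by real-time PCR, normalized to RiboGreen total RNA and expressed as percent inhibition versus untreated controls.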

human Factor XI mRNA [2] = experiment: Dose-dependent inhibition in HepG2 cells, lipofectin (Example 5); assay type: cell-based; details: 16 hours
Description: (§1) Cells were plated at a density of 10,000 cells per well and transfected using lipofectin reagent with 2.34 nM, 4.69 nM, 9.375 nM, 18.75 nM, 37.5 nM, and 75 nM concentrations of antisense oligonucleotide, as specified in Table 11. After a treatment period of approximately 16 hours, RNA was isolated from the cells and human Factor XI mRNA levels were measured by quantitative real-time PCR. Human Factor XI primer probe set RTS 2966 was used to measure mRNA levels. Factor XI mRNA levels were adjusted according to total RNA content, as measured by RIBOGREEN®. Results are presented as percent inhibition of human Factor XI, relative to untreated control cells.

human Factor XI mRNA [3] = experiment: Dose-dependent inhibition in HepG2 cells, electroporation (Example 5); assay type: cell-based; details: approx. 16 h, relative to untreated control cells
Description: The gapmers were also transfected via electroporation and their dose dependent inhibition of human Factor XI mRNA was measured. Cells were plated at a density of 20,000 cells per well and transfected via electroporation with 625 nM, 1250 nM, 2500 nM, 5,000 nM, 10,000 nM, and 20,000 nM concentrations of antisense oligonucleotide, as specified in Table 12. After a treatment period of approximately 16 hours, RNA was isolated from the cells and human Factor XI mRNA levels were measured by quantitative real-time PCR. Human Factor XI primer probe set RTS 2966 was used to measure mRNA levels. Factor XI mRNA levels were adjusted according to total RNA content, as measured by RIBOGREEN®. Results are presented as percent inhibition of human Factor XI, relative to untreated control cells.

human Factor XI mRNA [4] = experiment: Dose-dependent inhibition in HepB3 cells, lipofectin (Example 7); assay type: cell-based; details: approx. 16 h
Description: as §1, with “4,000” for “10,000”, “2.3” for “2.34”, “4.7” for “4.69”, “9.4” for “9.375”, “14.” for “11.”, “of” for “of human”

[5] = Tolerability in Sprague-Dawley rats: kidney function (Example 19); assay type: in vivo; details: Sprague Dawley rats; for urine protein/creatinine ratio, After: after 50 mg/kg s.c. twice per week for 6 weeks; for urine protein/creatinine ratio, Before: before antisense oligonucleotide treatment
Excerpt: Urine samples were taken before the start of treatment.

Substance | % inhibition of human Factor XI mRNA levels (human Factor XI mRNA [1]) | percent inhibition of human Factor XI mRNA, relative to untreated control cells (human Factor XI mRNA [2]; 2.34 nM) | percent inhibition of human Factor XI mRNA, relative to untreated control cells (human Factor XI mRNA [2]; 4.69 nM) | percent inhibition of human Factor XI mRNA, relative to untreated control cells (human Factor XI mRNA [2]; 9.375 nM) | percent inhibition of human Factor XI mRNA, relative to untreated control cells (human Factor XI mRNA [2]; 18.75 nM) | percent inhibition of human Factor XI mRNA, relative to untreated control cells (human Factor XI mRNA [2]; 37.5 nM) | percent inhibition of human Factor XI mRNA, relative to untreated control cells (human Factor XI mRNA [2]; 75 nM) | percent inhibition of human Factor XI mRNA (human Factor XI mRNA [3]; 625 nM) | percent inhibition of human Factor XI mRNA (human Factor XI mRNA [3]; 1250 nM) | percent inhibition of human Factor XI mRNA (human Factor XI mRNA [3]; 2500 nM) | percent inhibition of human Factor XI mRNA (human Factor XI mRNA [3]; 5000 nM) | percent inhibition of human Factor XI mRNA (human Factor XI mRNA [3]; 10000 nM) | percent inhibition of human Factor XI mRNA (human Factor XI mRNA [3]; 20000 nM) | percent inhibition of human Factor XI mRNA (human Factor XI mRNA [4]; 2.3 nM) | percent inhibition of human Factor XI mRNA (human Factor XI mRNA [4]; 4.7 nM) | percent inhibition of human Factor XI mRNA (human Factor XI mRNA [4]; 9.4 nM) | percent inhibition of human Factor XI mRNA (human Factor XI mRNA [4]; 18.75 nM) | percent inhibition of human Factor XI mRNA (human Factor XI mRNA [4]; 37.5 nM) | percent inhibition of human Factor XI mRNA (human Factor XI mRNA [4]; 75 nM) | urine protein/creatinine ratio, After [5] | other results
416999 (antisense GCACAGTTTCTGGCAGGCCT; 2-13-5 gapmer, wing sugar chemistry not given here, further chemistry not given here) [compound 416999] | 92% | 10% | 26% | 42% | 62% | 72% | 80% | 61% | 82% | 89% | 94% | 94% | 97% | 19% | 33% | 42% | 60% | 71% | 59% | 9.1 | urine protein/creatinine ratio, Before [5]: 1.3
417002 (antisense GGTGCACAGTTTCTGGCAGG; 2-13-5 gapmer, wing sugar chemistry not given here, further chemistry not given here) [compound 417002] | 92% | 17% | 26% | 49% | 61% | 81% | 84% | 59% | 72% | 86% | 90% | 94% | 96% | 24% | 30% | 46% | 57% | 71% | 65% | 2.4 | urine protein/creatinine ratio, Before [5]: 1.0
417003 (antisense TGGTGCACAGTTTCTGGCAG; 2-13-5 gapmer, wing sugar chemistry not given here, further chemistry not given here) [compound 417003] | 89% | 6% | 29% | 48% | 64% | 73% | 82% | 60% | 74% | 86% | 90% | 95% | 95% | 11% | 28% | 40% | 40% | 63% | 58% | 4.8 | urine protein/creatinine ratio, Before [5]: 0.9
